Square brackets hold non-standard residues; d marks the D form. Peptide text beside a SMILES is read from it. dPhe(4-Cl) = N[C@H](Cc1ccc(Cl)cc1)C(=O)O; d2Nal = N[C@H](Cc1ccc2ccccc2c1)C(=O)O; dCit = NC(=O)NCCC[C@@H](N)C(=O)O; d3Pal = N[C@H](Cc1cccnc1)C(=O)O

The subject of test [1] is human glioblastoma cell lines U-87MG or U-373MG, Kaposi sarcoma cell lines KSY-1 or KS-SLK, malignant melanoma cell line MV3 or BLM, medulloblastoma cell line …. Put plainly: Proliferation assay on cell cultures (Example 3). Format: cell-based. The settings on record: for anti-proliferative effects in tumor cells: cell lines of Example 3 treated with the substance; for anti-proliferative effect compared with Cetrorelix only: given additionally as a second GnRH antagonist. The method, then: A human cell line, such as the well known human glioblastoma cell lines U-87MG or U-373MG (Pinski et al., supra), or a human cell line such as the well known Kaposi sarcoma cell lines KSY-1 or KS-SLK (Parkash et al., 1996, New England Journal of Medicine, 335, 17, 1261-1269), or a human cell line such as the well known human malignant melanoma cell line MV3 or BLM (Goldbrunner, R. H., et al., 1996, Anticancer Research 16 (6B), 3679-87), or a human medulloblastoma cell line such as the well known cell line Daoy or D283 MED (Stockhammer et al., 1995, J. Neurosurgery, 83, 672-681), or human meningeoma cell cultures (Boyle-Wash, E., et al., 1995, Journal of Endocrinology, 145, 155-161), are cultured as previously described for the above-mentioned cell lines and then treated with a concentration of the GnRH agonist Triptorelin®, GnRH antagonist SB-75 (Cetrorelix®) or GnRH antagonist Ramorelix®. […]
In another embodiment, the above-mentioned cell lines are treated as described by Emons, G., et al., 1993, supra, and Irmer, G., 1995, supra, with a concentration of the GnRH peptide antagonist Ac-D-Nal(2)-D-4-ClPhe-D-Pal-Ser-1-MePal-D-IsopropylLys-Leu-IsopropylLys-Pro-D-AlaNH2 (also known as Ant 135-25; the Mepal portion is known as 1-Methyl-3-[3′-pyridyl]-alanine), Teverelix (also known as Antarelix®), Cetrorelix (also known as Cetrotide®), Abarelix (also known as Plenaxis®), D-63153 (also known as Ozarelix®), acyline, azaline B, antide (also known as Iturelix®), Degarelix (FE200486), Ganirelix, Nal-Glu, Orntide (also known as Ornirelix®), Elagolix, or with antagonist peptidomimetic ((2S)-2-[5-[2-(2-azabicyclo[2,2,2]oct-2-yl)-1,1-dimethyl-2-oxoethyl]-2-(3,5-dimethylphenyl)-1H-indol-3-yl]-N-(2-pyridin-4-ylethyl-)propan-1-amine (also known as “IN3”).
In another embodiment, the cell lines used above were each additionally treated with a second GnRH antagonist, namely one of the GnRH antagonists Cetrorelix®, Ant 135-25, IN3, degarelix, Antarelix®, Antide®, and Ramorelix® or alternatively with one of the GnRH antagonists that have been disclosed in U.S. Pat. Nos. 6,939,88, 6,200,957, 5,296,468, 4,851,385, 7,361,633, 7,288,517, WO/2009/106597 or PCT/EP2009/052326, U.S. Pat. Nos. 5,480,969, 5,198,533, or UK Patent GB 2 246782 B, wherein these additional treatment procedures were carried out in a manner similar to those reported in Emons et al., supra, using SB 75 (Cetrorelix®). […]

In test [2] the test system is malignant gliomas U-87MG and U-373MG. Put plainly: In vivo study with tumor-implanted nude mice (Example 4). To be noted: daily dosages. The method, then: An effect of the treatment of tumor-implanted nude mice (Pinski et al., supra) each with one of the GnRH agonists Buserelin, Triptorelin, Goserelin, and Leuprorelin and each with one of the GnRH antagonists Cetrorelix® (SB-75), Antarelix®, Antide®, and Ramorelix® on the growth of malignant gliomas U-87MG and U-373MG was carried out using daily dosages and controls in nude mice using analysis techniques described for the determination of the efficacy of similar peptides in Pinski et al., supra.

Test [3] concerns Glioblastoma multiforme. The test is described as follows: Phase I study with Buserelin (Example 5). The settings on record: intravenous or intranasal, permanent medication. Format: in vivo, human. The method, then: Patients with non-resectable Glioblastoma multiforme following microsurgical resection and/or after external conventional radiotherapy and/or brachytherapy; or patients with a diffusely, intraaxially growing brain tumor, multifocal tumor spreading or presence of a gliomatosis cerebri, respectively; a tumor volume of more than 65 ml; or a minimal tumor diameter of more than 5 cm, were each treated with the GnRH agonist Buserelin, which was administered intravenously or alternatively by intranasal application as a permanent medication as described by Klijn, J. G. M., et al., 1982, The Lancet, May 19, […].

In test [4] the test system is small cell lung carcinoma cell lines NCI-H1688, NCI-H1417, NCI-H1672, NCI-H1836, DMS-79, DM-553, DMS-114, SW-1271, NCI-H2227, NCI-HI1963, SHP-77 and H-69 AR. The test is described as follows: Proliferation assay on small cell lung carcinoma cell lines (Example 3). Format: cell-based, human. The settings on record: small cell lung carcinoma cell lines treated with the substance. How it is done: In another embodiment, the small cell lung carcinoma cell lines NCI-H1688, NCI-H1417, NCI-H1672, NCI-H1836, DMS-79, DM-553, DMS-114, SW-1271, NCI-H2227, NCI-HI1963 and SHP-77 in addition to the multidrug-resistant small cell lung carcinoma cell line H-69 AR, are cultured as described above and then treated as described by Emons, G., et al., 1993, supra, and Irmer, G., 1995, supra, with various concentrations of the GnRH agonists (D-Lys6)-GnRH, Lutrelin, Histrelin, Nafarelin, Azagly-Nafarelin, Deslorelin, Cystorelin, Decapeptyl, Gonadorelin, GnRH, D-Lys(6)-GnRH II, Lamprey GnRH II, (D-Lys6)-Lamprey GnRH, (D-Lys6)-Lamprey GnRH II and Lamprey GnRH III.
In another embodiment, the small cell lung carcinoma cell lines NCI-H1688, NCI-H1417, NCI-H1672, NCI-H1836, DMS-79, DM-553, DMS-114, SW-1271, NCI-H2227, NCI-HI1963 and SHP-77 in addition to the multidrug-resistant small cell lung carcinoma cell line H-69 AR, are cultured as described above for the above-mentioned cell lines, and then treated as described by Emons, G., et al., 1993, supra, and Irmer, G., 1995, supra, with a concentration of the GnRH antagonist Cetrorelix (also known as Cetrotide®) or with a GnRH peptide antagonist Ac-D-Nal(2)-D-4-ClPhe-D-Pal-Ser-1-MePal-D-IsopropylLys-Leu-IsopropylLys-Pro-D-AlaNH2 wherein Mepal is 1-Methyl-3-[3′-pyridyl]-alanine or Ant 135-25 (also known as Ac-D-Nal(2)-D-4-Cl-Phe-D-Pal-Ser-1-MePal-D-IsopropylLys-Leu-IsopropylLys-Pro-D-AlaNH2), Teverelix (also known as Antarelix®), Cetrorelix (also known as Cetrotide®), Abarelix (also known as Plenaxis®), D-63153 (also known as Ozarelix®), acyline, azaline B, antide (also known as Iturelix®), Degarelix (FE200486), Ganirelix, Nal-Glu, Orntide (also known as Ornirelix®) or with antagonist peptidomimetic ((2S)-2-[5-[2-(2-azabicyclo[2,2,2]oct-2-yl)-1,1-dimethyl-2-oxoethyl]-2-(3,5-dimethylphenyl)-1H-indol-3-yl]-N-(2-pyridin-4-ylethyl-)propan-1-amine (also known as “IN3”).

The subject of test [5] is U-87MG cells. Format: cell-based, human. How it is done: U-87MG cells were plated at a density of 1400 cells/cm^2 in […] in standard culture medium. Cells were allowed to attach and start growing for 3 days; the seeding media were then changed to experimental media. Cells were treated for 7 days with ZOLADEX® (10^−10-10^−6 M); medium was changed every two days. Following treatment, cells were collected and counted by hemocytometer. Data obtained from three independent experiments were analyzed according to the Dunnett's test after one-way ANOVA.

Test [6] has as its system human melanoma cell line MV3. Put plainly: Proliferation assay using the human malignant melanoma cell line MV3. Format: cell-based. How it is done: The human melanoma cell line MV3 was cultured (in long-term culture in RPMI medium (Gibco Co.) with 1% Penstrep and 10% of heat-inactivated fetal calf serum). The proliferation assay was carried out with 6×10^2 cells per well in 96 well plates. First, the cells were removed from the culture flask with a […] and then washed in standard PBS solution. Following centrifugation for 10 minutes (1200 g) the supernatant was discarded and the pellet resuspended in 1 ml medium. An aliquot of 20 μl of the cells was diluted with trypan blue to obtain an 1:20 dilution. Trypan blue stains the necrotic cells. Then counting was performed in a Neubauer counting chamber. Evaluation was performed by daily determination of 4 values starting at day 0 and multiplying the mean values of the cell counts×10^4× dilution factor 20 to obtain the cell count. During the 5 days, the measurement was performed 4× daily in a Biomec spectrophotometer.
The method for determination of tumor cell proliferation is described in Lü, H. Q., et al., 1996, Journal of Cancer Research and Clinical Oncology, 122, 335-342.
The cell line was treated with (Gly-OH10)-LHRH, the LHRH hormone (FIG. 3) (Sigma Chemical Co., No. L8008) or Triptorelin, an LHRH agonist (FIG. 2) (Sigma Chemical Co., No. L9761) or Antide®, a LHRH antagonist (FIG. 1) (Sigma Chemical Co., No. A8802).
Using concentrations of 10^−4 M, 10^−5 M, and 10^−6 M, with the medium serving as a negative control from day 4 on, the following results were obtained: […]

Regarding `CCNC(=O)[C@@H]1CCCN1C(=O)[C@H](CCCNC(=N)N)NC(=O)[C@H](CC(C)C)NC(=O)[C@@H](COC(C)(C)C)NC(=O)[C@H](Cc1ccc(O)cc1)NC(=O)[C@H](CO)NC(=O)[C@H](Cc1c[nH]c2ccccc12)NC(=O)[C@H](Cc1cnc[nH]1)NC(=O)[C@@H]1CCC(=O)N1` [Buserelin], in test [1], the “anti-proliferative effects in tumor cells” value (shortened to “anti-proliferative effects”) is recorded as “Significant anti-proliferative effects”. Besides, the “growth of malignant gliomas” value in test [2] is reported as “Significant growth-inhibiting effects”. The recidivation-free survival entry in test [3] was “longer than that described following Tamoxifen treatment of glioma”.
On to `CC(=O)N[C@H](Cc1ccc2ccccc2c1)C(=O)N[C@H](Cc1ccc(Cl)cc1)C(=O)N[C@H](Cc1cccnc1)C(=O)N[C@@H](CO)C(=O)N[C@@H](Cc1ccc(O)cc1)C(=O)N[C@H](CCCNC(N)=O)C(=O)N[C@@H](CC(C)C)C(=O)N[C@@H](CCCNC(=N)N)C(=O)N1CCC[C@H]1C(=O)N[C@H](C)C(N)=O` [Cetrorelix®] (Ac-[d2Nal][dPhe(4-Cl)][d3Pal]SY[dCit]LRP[dA]-NH2), for which, in test [1], the “anti-proliferative effects” value was “Significant anti-proliferative effects” and the “anti-proliferative effect compared with Cetrorelix only” value was “significantly stronger anti-proliferative effect”. In addition, the “anti-proliferative effects” value in test [4] was “Significant anti-proliferative effects”. Besides, the “growth of malignant gliomas” value in test [2] was “Significant growth-inhibiting effects”. Moreover, in test [5] (10^−5 M), the “inhibition of proliferation compared to controls” value stood at 30%. The decrease of proliferation in test [5] (10^−6 M) amounted to 28%.
As to `CCNC(=O)[C@@H]1CCCN1C(=O)[C@H](CCCNC(=N)N)NC(=O)[C@H](CC(C)C)NC(=O)[C@@H](CC(C)C)NC(=O)[C@H](Cc1ccc(O)cc1)NC(=O)[C@H](CO)NC(=O)[C@H](Cc1c[nH]c2ccccc12)NC(=O)[C@H](Cc1c[nH]cn1)NC(=O)[C@@H]1CCC(=O)N1` [LEUPRORELIN®], in test [1], the “anti-proliferative effects” value is reported as “Significant anti-proliferative effects”. Besides, in test [2], the “growth of malignant gliomas” value was “Significant growth-inhibiting effects”.
With “(Gly-OH10)-LHRH (QHWSYGLRPG; Gonadoliberin-1 C-terminal free acid; UniProt P01148 24-33, looked up) [LHRH hormone, the LHRH hormone (Sigma Chemical Co., No. L8008)]”, the “function of the LHRH hormone on MV3 growth in vitro” value in test [6] was “positive growth factor”.
Turning to “Ac-D-Nal(2)-D-4-ClPhe-D-Pal-Ser-1-MePal-D-IsopropylLys-Leu-IsopropylLys-Pro-D-AlaNH2 [Ant 135-25]”, the “anti-proliferative effects” value in test [1] and in test [4] was “Significant anti-proliferative effects” each time. Further, the “anti-proliferative effect compared with Cetrorelix only” value in test [1] is on record as “significantly stronger anti-proliferative effect”.
For Antarelix®, the “anti-proliferative effects” value in test [1] and in test [4] was “Significant anti-proliferative effects” throughout. The “anti-proliferative effect compared with Cetrorelix only” value in test [1] is recorded as “significantly stronger anti-proliferative effect”. Further, the “growth of malignant gliomas” value in test [2] is on record as “Significant growth-inhibiting effects”.
Consider Antide®, for which the “anti-proliferative effects” value in test [1] and in test [4] was “Significant anti-proliferative effects” each time. The “anti-proliferative effect compared with Cetrorelix only” value in test [1] is reported as “significantly stronger anti-proliferative effect”. Moreover, the “growth of malignant gliomas” value in test [2] is “Significant growth-inhibiting effects”. The inhibition of proliferation is 15% in test [6] (10^−4 M, from day 4 on); 35% in test [6] (10^−5 M, from day 4 on); “no inhibition” in test [6] (10^−6 M). In addition, in test [6] (10^−6 M), the “stimulation of the growth” value is 40%.
For Nal-Glu, the “anti-proliferative effects” value in test [1] and in test [4] was “Significant anti-proliferative effects” in each case.

(Values after patent US8962558B2, “Methods for reducing GnRH-positive tumor cell proliferation using the GnRH antagonist IN3” (priority 1997, dated 2015).)
